Target: R132H mutant IDH1 enzyme (Homo sapiens (Human), UniProt O75874, R132H)
Experiment: R132H IDH1 Enzymatic Assay
Format: biochemical
Conditions: 1.5 nM final, 30 min preincubation, 60 min reaction, Kinase-GLO luminescence
Method: R132H IDH1 Enzymatic Assay
Each test compound (10 mM stock in DMSO) is diluted in DMSO to make a 10-point, 3-fold dilution series. 125 nL of each dilution or DMSO alone is dispensed to a 384-well Greiner Lumitrac 200 assay plate using an Echo® Liquid Handler. To each well of the plate is added 20 uL of enzyme in assay buffer or assay buffer alone. Assay buffer consists of 50 mM sodium phosphate, pH 7.0, 50 mM magnesium chloride, 50 mM sodium chloride, and 0.01% (w/v) bovine serum albumin. When present, the R132H mutant IDH1 enzyme is at a working concentration of 1.875 nM (final concentration in assay of 1.5 nM). The assay plate is allowed to incubate for 30 minutes at room temperature and 5 uL of 5× substrate mixture (2.5 uM nicotinamide adenine dinucleotide phosphate, 100 uM adenosine diphosphate, 7.5 mM glyceraldehyde-3-phosphate, 7.5 ug/mL of spinach glyceraldehyde-3-phosphate dehydrogenase, 25 nM phosphoglycerate kinase, and 5 mM alpha-ketoglutarate in assay buffer) is added to all wells. The reaction plate is incubated for 60 minutes followed by addition of 25 uL of Promega Kinase-GLO reagent to all wells and 10-minute incubation.
Luminescence is measured using a PerkinElmer Envision plate reader. The percent activity of each dilution is determined as the ratio of background corrected signal to the background corrected signal of wells receiving only DMSO. IC50 values are determined by fitting percent activity data to a four-parameter logistic dose response equation. The IC50 values of the exemplified compounds are included in Table 8.

Chain of R132H mutant IDH1 enzyme (O75874 whole entry R132H): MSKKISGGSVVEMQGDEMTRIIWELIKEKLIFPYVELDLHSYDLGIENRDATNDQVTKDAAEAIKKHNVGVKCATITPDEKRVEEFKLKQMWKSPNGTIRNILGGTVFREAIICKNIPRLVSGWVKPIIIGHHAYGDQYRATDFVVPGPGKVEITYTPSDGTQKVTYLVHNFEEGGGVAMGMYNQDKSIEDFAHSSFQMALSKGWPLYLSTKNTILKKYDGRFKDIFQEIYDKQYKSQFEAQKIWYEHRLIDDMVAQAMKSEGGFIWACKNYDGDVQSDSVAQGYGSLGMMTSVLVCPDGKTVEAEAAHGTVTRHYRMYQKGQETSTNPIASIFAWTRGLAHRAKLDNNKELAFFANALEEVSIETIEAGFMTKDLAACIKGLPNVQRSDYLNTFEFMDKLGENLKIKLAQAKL

First: O=C(C1CCN(CC(F)(F)F)CC1)N1Cc2cc(F)cnc2Nc2cc(F)c(N3CC4CCC3CO4)cc21 (stereo not drawn) [Example 29, (8-(2-oxa-5-azabicyclo[2.2.2]octan-5-yl)-3,9-difluoro-5,11-dihydro-6H-benzo[b]pyrido[2,3-e][1,4]diazepin-6-yl)(1-(2,2,2-trifluoroethyl)piperidin-4-yl)methanone]
Second: O=C(C1CCN(CC(F)(F)F)CC1)N1Cc2cc(F)cnc2Nc2cc(F)c(N3C[C@@H]4CC[C@H]3CO4)cc21 [Example 32, (8-((1S,4S)-2-oxa-5-azabicyclo[2.2.2]octan-5-yl)-3,9-difluoro-5,11-dihydro-6H-benzo[b]pyrido[2,3-e][1,4]diazepin-6-yl)(1-(2,2,2-trifluoroethyl)piperidin-4-yl)methanone]
The IC50 of the first is 1.8-fold lower: 9.9 nM for the first, 18.1 nM for the second. The first is the more potent here.

`CC(C)O[C@H]1CC[C@H](C(=O)N2Cc3cc(F)cnc3Nc3cc(F)c([C@@H]4COCCO4)cc32)OC1` (single isomer, unassigned) [Example 35] and `CC(C)O[C@H]1CC[C@H](C(=O)N2Cc3cccnc3Nc3cc(F)c(C4COCCO4)cc32)OC1` (stereo partly drawn) [Example 37, (8-(1,4-dioxan-2-yl)-9-fluoro-5,11-dihydro-6H-benzo[b]pyrido[2,3-e][1,4]diazepin-6-yl)((2R,5S)-5-isopropoxytetrahydro-2H-pyran-2-yl)methanone] are within 1.5-fold of each other in IC50: 28 nM for the first, 36.9 nM for the second.

Going from `CC(C)O[C@H]1CC[C@H](C(=O)N2Cc3cc(S(C)(=O)=O)cnc3Nc3ccc(N4C[C@@H]5CC[C@H]4CO5)cc32)CC1` [Example 70, (8-((1S,4S)-2-oxa-5-azabicyclo[2.2.2]octan-5-yl)-3-(methylsulfonyl)-5,11-dihydro-6H-benzo[b]pyrido[2,3-e][1,4]diazepin-6-yl)(trans-4-isopropoxycyclohexyl)methanone] to `Cc1cnc2c(c1)CN(C(=O)[C@H]1CC[C@H](OC(C)C)CC1)c1cc(N3C[C@@H]4CC[C@H]3CO4)ccc1N2` [Example 69, (8-((1S,4S)-2-Oxa-5-azabicyclo[2.2.2]octan-5-yl)-3-methyl-5,11-dihydro-6H-benzo[b]pyrido[2,3-e][1,4]diazepin-6-yl)(trans-4-isopropoxycyclohexyl)methanone], the IC50 falls from 5750 nM to 103 nM (56-fold).

Compared with `O=C(C1CCN(CC(F)(F)F)CC1)N1Cc2cc(F)cnc2Nc2cc(F)c(N3CC4CCC3CO4)cc21` (stereo not drawn) [Example 73, (8-(2-oxa-5-azabicyclo[2.2.2]octan-5-yl)-3,9-difluoro-5H-benzo[b]pyrido[2,3-e][1,4]diazepin-6(11H)-yl)(1-(2,2,2-trifluoroethyl)piperidin-4-yl)methanone], `O=C(C1CCN(CC(F)(F)F)CC1)N1Cc2cc(F)cnc2Nc2cc(F)c(N3[C@@H]4CO[C@H]5[C@@H]4OC[C@H]53)cc21` [Example 22, (3,9-difluoro-8-((3R,3aR,6R,6aR)-hexahydro-3,6-epiminofuro[3,2-b]furan-7-yl)-5,11-dihydro-6H-benzo[b]pyrido[2,3-e][1,4]diazepin-6-yl)(1-(2,2,2-trifluoroethyl)piperidin-4-yl)methanone] is 2.4-fold lower in IC50: 10 nM for the first, 4.2 nM for the second. The second is the more potent here.

Going from `CC(C)O[C@H]1CC[C@H](C(=O)N2Cc3cccnc3Nc3cc(F)c(N4CC5CCC4CO5)cc32)CC1` (stereo partly drawn) [Example 62, [9-fluoro-8-(2-oxa-5-azabicyclo[2.2.2]oct-5-yl)-5,11-dihydro-6H-pyrido[2,3-b][1,5]benzodiazepin-6-yl](trans-4-isopropoxycyclohexyl)methanone] to `Cc1c(N2C[C@@H]3CC[C@H]2CO3)ccc2c1N(C(=O)[C@H]1CC[C@H](OC(C)C)CC1)Cc1cccnc1N2` [Example 59, (trans-4-isopropoxycyclohexyl){7-methyl-8-[(1S,4S)-2-oxa-5-azabicyclo[2.2.2]oct-5-yl]-5,11-dihydro-6H-pyrido[2,3-b][1,5]benzodiazepin-6-yl}methanone], the IC50 rises from 35.2 nM to 58.7 nM (1.7-fold).

Going from `O=C(C1CCN(CC(F)(F)F)CC1)N1Cc2cc(F)cnc2Nc2ccc(N3[C@@H]4CO[C@H]5[C@@H]4OC[C@H]53)cc21` [Example 7, (3-fluoro-8-((3R,3aR,6R,6aR)-hexahydro-3,6-epiminofuro[3,2-b]furan-7-yl)-5,11-dihydro-6H-benzo[b]pyrido[2,3-e][1,4]diazepin-6-yl)(1-(2,2,2-trifluoroethyl)piperidin-4-yl)methanone] to `CO[C@H]1C[C@H]2CC[C@@H](C1)N2c1ccc2c(c1)N(C(=O)C1CCN(CC(F)(F)F)CC1)Cc1cc(F)cnc1N2` [Example 10, (3-fluoro-8-((1R,3r,5S)-3-methoxy-8-azabicyclo[3.2.1]octan-8-yl)-5,11-dihydro-6H-benzo[b]pyrido[2,3-e][1,4]diazepin-6-yl)(1-(2,2,2-trifluoroethyl)piperidin-4-yl)methanone], the IC50 falls from 18.5 nM to 6.2 nM (3-fold).

`CC(C)O[C@H]1CC[C@H](C(=O)N2Cc3cc(F)cnc3Nc3ccc(N4CC5(CCCOC5)C4)cc32)OC1` [Example 40, (3-fluoro-8-(6-oxa-2-azaspiro[3.5]nonan-2-yl)-5,11-dihydro-6H-benzo[b]pyrido[2,3-e][1,4]diazepin-6-yl)((2R,5S)-5-isopropoxytetrahydro-2H-pyran-2-yl)methanone] and `CC(C)O[C@H]1CC[C@H](C(=O)N2Cc3cc(F)cnc3Nc3ccc(N4CC5(CCCOC5)C4)cc32)CC1` [Example 16, [3-fluoro-8-(6-oxa-2-azaspiro[3.5]non-2-yl)-5,11-dihydro-6H-pyrido[2,3-b][1,5]benzodiazepin-6-yl][trans-4-(propan-2-yloxy)cyclohexyl]methanone] are within 1.5-fold of each other in IC50: 25.5 nM for the first, 24 nM for the second.

First: Cn1nccc1-c1cc2c(cc1F)Nc1ncccc1CN2C(=O)C1CCN(CC(F)(F)F)CC1 [Example 53, (9-fluoro-8-(1-methyl-1H-pyrazol-5-yl)-5,11-dihydro-6H-benzo[b]pyrido[2,3-e][1,4]diazepin-6-yl)(1-(2,2,2-trifluoroethyl)piperidin-4-yl)methanone]
Second: O=C(C1CCN(CC(F)(F)F)CC1)N1Cc2cc(F)cnc2Nc2cc(F)ccc21 [Example 72, (3,9-Difluoro-5,11-dihydro-6H-benzo[b]pyrido[2,3-e][1,4]diazepin-6-yl)(1-(2,2,2-trifluoroethyl)piperidin-4-yl)methanone]
The IC50 of the first is 22-fold lower: 7.2 nM for the first, 160 nM for the second.

Going from `Cc1c(N2C[C@H]3CC[C@@H]2CO3)ccc2c1N(C(=O)[C@H]1CC[C@H](OC(C)C)CC1)Cc1cccnc1N2` [Example 61, (trans-4-isopropoxycyclohexyl){7-methyl-8-[(1R,4R)-2-oxa-5-azabicyclo[2.2.2]oct-5-yl]-5,11-dihydro-6H-pyrido[2,3-b][1,5]benzodiazepin-6-yl}methanone] to `CC(C)O[C@H]1CC[C@H](C(=O)N2Cc3cc(F)cnc3Nc3cc(F)c(N4C[C@@H]5C[C@H]4CO5)cc32)CC1` [Example 24, {3,9-difluoro-8-[(1S,4S)-2-oxa-5-azabicyclo[2.2.1]hept-5-yl]-5,11-dihydro-6H-pyrido[2,3-b][1,5]benzodiazepin-6-yl}[trans-4-(propan-2-yloxy)cyclohexyl]methanone], the IC50 falls from 54.1 nM to 5.6 nM (9.7-fold).

Going from `CC(C)O[C@H]1CC[C@H](C(=O)N2Cc3cc(F)cnc3Nc3ccc(NCC4(CCl)CCCOC4)cc32)OC1` (stereo partly drawn) [Example 42, (8-(((3-(chloromethyl)tetrahydro-2H-pyran-3-yl)methyl)amino)-3-fluoro-5,11-dihydro-6H-benzo[b]pyrido[2,3-e][1,4]diazepin-6-yl)((2R,5S)-5-isopropoxytetrahydro-2H-pyran-2-yl)methanone] to `CC(C)O[C@H]1CC[C@H](C(=O)N2Cc3cc(F)cnc3Nc3ccc([C@H]4COCCO4)cc32)OC1` [Example 33, (8-((S)-1,4-Dioxan-2-yl)-3-fluoro-5,11-dihydro-6H-benzo[b]pyrido[2,3-e][1,4]diazepin-6-yl)((2R,5S)-5-isopropoxytetrahydro-2H-pyran-2-yl)methanone], the IC50 rises from 13.6 nM to 21.8 nM (1.6-fold). The first is the more potent here.

`CO[C@H]1C[C@H]2CC[C@@H](C1)N2c1cc2c(cc1F)Nc1ncc(F)cc1CN2C(=O)[C@H]1CC[C@H](OC(C)C)CO1` [Example 47, (3,9-difluoro-8-((1R,3S,5S)-3-methoxy-8-azabicyclo[3.2.1]octan-8-yl)-5,11-dihydro-6H-benzo[b]pyrido[2,3-e][1,4]diazepin-6-yl)((2R,5S)-5-isopropoxytetrahydro-2H-pyran-2-yl)methanone] and `CC(C)O[C@H]1CC[C@H](C(=O)N2Cc3cc(F)cnc3Nc3cc(F)c(N4CC5CCC4CO5)cc32)OC1` (stereo partly drawn) [Example 44, (8-(2-oxa-5-azabicyclo[2.2.2]octan-5-yl)-3,9-difluoro-5,11-dihydro-6H-benzo[b]pyrido[2,3-e][1,4]diazepin-6-yl)((2R,5S)-5-isopropoxytetrahydro-2H-pyran-2-yl)methanone] are within 1.5-fold of each other in IC50: 15.8 nM for the first, 11.4 nM for the second.

Compared with `CCS(=O)(=O)N1CCC(C(=O)N2Cc3cc(F)cnc3Nc3ccc(N4CC5CCC4CO5)cc32)CC1` (stereo not drawn) [Example 43, (8-(2-oxa-5-azabicyclo[2.2.2]octan-5-yl)-3-fluoro-5,11-dihydro-6H-benzo[b]pyrido[2,3-e][1,4]diazepin-6-yl)(1-(ethylsulfonyl)piperidin-4-yl)methanone], `CC(C)O[C@H]1CC[C@H](C(=O)N2Cc3cc(F)cnc3Nc3cc(F)c(N4C5CCC4COC5)cc32)CC1` [Example 26, [3,9-difluoro-8-(3-oxa-8-azabicyclo[3.2.1]oct-8-yl)-5,11-dihydro-6H-pyrido[2,3-b][1,5]benzodiazepin-6-yl][trans-4-(propan-2-yloxy)cyclohexyl]methanone] is 6.3-fold lower in IC50: 87 nM for the first, 13.8 nM for the second.
